In patent US6562874B1, “Compositions comprising combination of DEFI and modified DEFI and methods of making” (Unilever Home & Personal Care USA division of Conopco, Inc., priority 1999, dated 2003):

What was measured:
zein protein = assay: Mildness (Zein solubilization), standard Zein assay; conditions: Table 5; 1% aqueous solution, 1.5 g zein, one hour
Protocol: Mildness (Zein Solubilization)
This test is based on the correlation noted between the amount of zein solubilized by an aqueous surfactant solution and its irritancy; the more zein a surfactant dissolves, the greater its intrinsic irritation potential. The procedure is conducted gravimetrically: a 1% aqueous solution of surfactant mixture is added to 1.5 g of zein protein and this mixture is allowed to stir at a constant rate for one hour. This mixture is then centrifuged (for approximately 25 minutes at 4000 rpm) and the undissolved zein is isolated, rinsed and allowed to dry in a vacuum over at 60° C. to constant weight. The zein solubilized is determined by difference.

[1] = Foaming protocol for Examples 26-36, 250 mL graduated cylinder; assay type: physicochemical; conditions: Table 5, 1 g in 20 mL water, 250 mL cylinder, shaken 60 seconds
Protocol: Protocol for Examples 26-36
One gram of final active mix is placed in a 250 mL glass-stoppered graduated cylinder and dispersed in 20 mL of distilled, de-ionized water; it is heated to 45° C. in a water bath until the temperature of the dispersion is at equilibrium. (note: For measurements done at 20° C., the water bath is set to 20° C. and the same procedure is followed). The sealed cylinder is then shaken vigorously for 60 seconds after which time the foam volume is measured in mL and recorded.

[2] = Foaming measurement protocol (Examples 1-25), 100 mL graduated cylinder; assay type: physicochemical; conditions: 1 g active mix in 20 mL water, 45° C., shaken 60 seconds, 100 mL cylinder
Protocol: Foaming Measurement Protocol (Examples 1-25)
One gram of final active mix is placed in a 100 mL glass stoppered graduated cylinder and dispersed in 20 mL of distilled de-ionized water; it is heated to 45° C. in a water bath until the temperature of the dispersion is at equilibrium. The sealed cylinder is then shaken vigorously for 60 seconds after which time the foam volume is measured in mL and recorded.

| Substance | Zein (zein protein) [%] | Foam at 20° C. ([1]; 20° C.) [mL] | Foam at 45° C. ([1]; 45° C.) [mL] | Foam Vol. ([2]; Table 1) [mL] | Foam Vol. ([2]; Table 2) [mL] |
| --- | --- | --- | --- | --- | --- |
| Coco N-Methyl Taurate | 50.0 | 122 | 135 | – | – |
| sodium lauroyl isethionate [SLI - Control] | – | – | – | 89.5 | 95 |
